Measured values from patent US10280149B2, “Therapeutic compounds and uses thereof” (GENENTECH, INC., priority 2015, dated 2019).

These compounds were tested against Full length KDM2B (Homo sapiens (Human), UniProt Q8NHM5) (assay: KDM2B TR-FRET assay for determining inhibitor IC50). Settings: TR-FRET (HTRF), biotin-H3K36me2 peptide substrate, 2-OG 0.3 μM or 6 μM.
Assay type: biochemical
Source text: KDM2B TR-FRET Assay for Determining Inhibitor IC50
The KDM2B TR-FRET Assay described above represents an additional embodiment of the invention.

Chain of Full length KDM2B (Q8NHM5 whole entry): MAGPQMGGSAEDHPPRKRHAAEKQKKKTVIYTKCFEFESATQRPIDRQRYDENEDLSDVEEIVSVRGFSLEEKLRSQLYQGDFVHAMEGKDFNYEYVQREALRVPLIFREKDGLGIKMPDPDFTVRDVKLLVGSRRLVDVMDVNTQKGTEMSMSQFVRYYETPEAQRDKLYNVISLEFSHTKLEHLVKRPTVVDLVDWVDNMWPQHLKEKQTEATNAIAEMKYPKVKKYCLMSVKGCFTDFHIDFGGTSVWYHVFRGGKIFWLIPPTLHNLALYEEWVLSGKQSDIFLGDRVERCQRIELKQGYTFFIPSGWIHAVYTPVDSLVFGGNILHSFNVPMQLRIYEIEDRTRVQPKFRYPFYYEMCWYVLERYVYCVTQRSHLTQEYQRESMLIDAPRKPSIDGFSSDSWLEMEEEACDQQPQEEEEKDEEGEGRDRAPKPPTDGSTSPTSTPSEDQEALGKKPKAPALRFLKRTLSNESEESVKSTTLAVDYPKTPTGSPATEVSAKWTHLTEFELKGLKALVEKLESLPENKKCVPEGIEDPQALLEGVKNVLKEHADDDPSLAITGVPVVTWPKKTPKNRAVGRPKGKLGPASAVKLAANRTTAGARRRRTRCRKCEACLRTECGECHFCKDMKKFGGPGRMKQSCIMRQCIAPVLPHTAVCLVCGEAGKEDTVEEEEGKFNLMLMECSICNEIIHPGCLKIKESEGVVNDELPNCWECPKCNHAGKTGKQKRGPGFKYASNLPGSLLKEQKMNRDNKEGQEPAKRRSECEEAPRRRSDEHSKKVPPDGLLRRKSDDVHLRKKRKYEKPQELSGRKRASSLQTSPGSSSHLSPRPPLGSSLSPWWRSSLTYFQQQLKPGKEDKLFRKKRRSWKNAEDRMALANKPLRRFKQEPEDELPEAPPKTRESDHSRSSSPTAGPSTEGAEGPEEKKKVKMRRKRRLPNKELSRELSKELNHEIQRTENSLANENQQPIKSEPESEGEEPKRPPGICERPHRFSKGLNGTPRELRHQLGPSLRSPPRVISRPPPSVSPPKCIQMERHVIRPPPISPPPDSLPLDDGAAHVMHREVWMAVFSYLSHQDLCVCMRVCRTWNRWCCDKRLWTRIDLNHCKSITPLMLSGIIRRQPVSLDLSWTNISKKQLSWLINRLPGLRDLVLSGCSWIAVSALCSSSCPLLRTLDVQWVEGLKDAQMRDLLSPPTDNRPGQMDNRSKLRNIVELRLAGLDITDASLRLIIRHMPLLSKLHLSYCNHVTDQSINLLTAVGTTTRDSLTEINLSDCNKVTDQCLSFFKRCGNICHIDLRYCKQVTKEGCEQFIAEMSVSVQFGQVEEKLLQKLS

Row | Structure (SMILES) | IC50 [nM]
1 | COc1ccc(C(=O)C2CCCN(CC3CC3)C2)cc1 (single isomer, unassigned) [Example 110a, (1-(cyclopropylmethyl)piperidin-3-yl)(4-methoxyphenyl)methanone] | 2000
2 | O=C(c1ccc2ccccc2n1)C1CCCN(CC2CC2)C1 (single isomer, unassigned) [Example 117a, (1-(cyclopropylmethyl)piperidin-3-yl)(quinolin-2-yl)methanone] | 356
3 | COc1cccc2cc(C(=O)C3CN(CC4CC4)CCC3C)ccc12 (single isomer, unassigned) [Example 136a, (1-(cyclopropylmethyl)-4-methylpiperidin-3-yl)(5-methoxynaphthalen-2-yl)methanone] | 41.4
4 | COc1cccc2cc(C(=O)[C@@H]3CN(CC4CC4)CC[C@@H]3C)ccc12 (single isomer, unassigned) [Example 136b, (1-(cyclopropylmethyl)-4-methylpiperidin-3-yl)(5-methoxynaphthalen-2-yl)methanone] | 1200
5 | COc1ccc2cc(C(=O)[C@@H]3CN(CC4CC4)CC[C@H]3C)ccc2c1 (single isomer, unassigned) [Example 137b, (1-(cyclopropylmethyl)-4-methylpiperidin-3-yl)(6-methoxynaphthalen-2-yl)methanone] | 92.8
6 | COc1ccc2cc(C(=O)[C@H]3CN(CC4CC4)CC[C@H]3C)ccc2c1 (single isomer, unassigned) [Example 137c, (1-(cyclopropylmethyl)-4-methylpiperidin-3-yl)(6-methoxynaphthalen-2-yl)methanone] | 1100
7 | COc1ccc2cc(C(=O)[C@H]3CN(CC4CC4)CC[C@@H]3C)ccc2c1 (single isomer, unassigned) [Example 137d, (1-(cyclopropylmethyl)-4-methylpiperidin-3-yl)(6-methoxynaphthalen-2-yl)methanone] | 3300
8 | COc1ccc2cc(C(=O)C3CN(CC4CC4)CCC3C(F)(F)F)ccc2c1 (single isomer, unassigned) [Example 138a, (1-(cyclopropylmethyl)-4-(trifluoromethyl)piperidin-3-yl)(6-methoxynaphthalen-2-yl)methanone] | 137
9 | COc1ccc2cc(C(=O)C3CN(CC4CC4)CCC3C(F)(F)F)ccc2c1 (single isomer, unassigned) [Example 138b, (1-(cyclopropylmethyl)-4-(trifluoromethyl)piperidin-3-yl)(6-methoxynaphthalen-2-yl)methanone] | 4800
10 | COc1ccc2cc(C(=O)[C@H]3C[C@@H](C)CN(CC4CC4)C3)ccc2c1 (single isomer, unassigned) [Example 139a, (1-(cyclopropylmethyl)-5-methylpiperidin-3-yl)(6-methoxynaphthalen-2-yl)methanone] | 333
11 | CCCC1CCN(C2CCC2)CC1C(=O)c1ccc2cc(OC)ccc2c1 (single isomer, unassigned) [Example 140a, (1-cyclobutyl-4-propylpiperidin-3-yl)(6-methoxynaphthalen-2-yl)methanone] | 310
12 | CCC[C@H]1CCN(C2CCC2)C[C@@H]1C(=O)c1ccc2cc(OC)ccc2c1 (single isomer, unassigned) [Example 140b, (1-cyclobutyl-4-propylpiperidin-3-yl)(6-methoxynaphthalen-2-yl)methanone] | 328
13 | CCC[C@H]1CCN(C2CCC2)C[C@H]1C(=O)c1ccc2cc(OC)ccc2c1 (single isomer, unassigned) [Example 140c, (1-cyclobutyl-4-propylpiperidin-3-yl)(6-methoxynaphthalen-2-yl)methanone] | 5.48
14 | CCCC1CCN(C2CCC2)CC1C(=O)c1ccc2cc(OC)ccc2c1 (single isomer, unassigned) [Example 140d, (1-cyclobutyl-4-propylpiperidin-3-yl)(6-methoxynaphthalen-2-yl)methanone] | 9.96
15 | COc1ccc2cc(C(=O)[C@@H]3CN(C4CCC4)CC[C@@H]3c3ccccc3)ccc2c1 (single isomer, unassigned) [Example 141a, (1-cyclobutyl-4-phenylpiperidin-3-yl)(6-methoxynaphthalen-2-yl)methanone] | 1000
16 | COc1ccc2cc(C(=O)C3CN(C4CCC4)CCC3c3ccccc3)ccc2c1 (single isomer, unassigned) [Example 141b, (1-cyclobutyl-4-phenylpiperidin-3-yl)(6-methoxynaphthalen-2-yl)methanone] | 98.7
17 | CC[C@@H]1CCN(C2CCC2)C[C@H]1C(=O)c1ccc2cc(OC)ccc2c1 (single isomer, unassigned) [Example 142a, (1-cyclobutyl-4-ethylpiperidin-3-yl)(6-methoxynaphthalen-2-yl)methanone] | 11.4
18 | CCC1CCN(C2CCC2)CC1C(=O)c1ccc2cc(OC)ccc2c1 (single isomer, unassigned) [Example 142b, (1-cyclobutyl-4-ethylpiperidin-3-yl)(6-methoxynaphthalen-2-yl)methanone] | 349
19 | CCC1CCN(C2CCC2)CC1C(=O)c1ccc2cc(OC)ccc2c1 (single isomer, unassigned) [Example 142c, (1-cyclobutyl-4-ethylpiperidin-3-yl)(6-methoxynaphthalen-2-yl)methanone] | 207
20 | CCC1CCN(C2CCC2)CC1C(=O)c1ccc2cc(OC)ccc2c1 (single isomer, unassigned) [Example 142d, (1-cyclobutyl-4-ethylpiperidin-3-yl)(6-methoxynaphthalen-2-yl)methanone] | 6.56
21 | COc1ccc2cc(C(=O)[C@@H]3CN(C4CCC4)CC[C@@H]3C(C)C)ccc2c1 (single isomer, unassigned) [Example 143a, (1-cyclobutyl-4-isopropylpiperidin-3-yl)(6-methoxynaphthalen-2-yl)methanone] | 635
22 | COc1ccc2cc(C(=O)[C@H]3CN(C4CCC4)CC[C@H]3C(C)C)ccc2c1 (single isomer, unassigned) [Example 143b, (1-cyclobutyl-4-isopropylpiperidin-3-yl)(6-methoxynaphthalen-2-yl)methanone] | 15.9
23 | COc1ccc2cc(C(=O)[C@@H]3CN(C4CCC4)CC[C@@H]3CC(C)C)ccc2c1 (single isomer, unassigned) [Example 144a, (1-cyclobutyl-4-isobutylpiperidin-3-yl)(6-methoxynaphthalen-2-yl)methanone] | 5.6
24 | COc1ccc2cc(C(=O)C3CN(C4CCC4)CCC3CC(C)C)ccc2c1 (single isomer, unassigned) [Example 144b, (1-cyclobutyl-4-isobutylpiperidin-3-yl)(6-methoxynaphthalen-2-yl)methanone] | 269
25 | COc1ccc2cc(C(=O)C3CN(CC4CC4)CCC3OC)ccc2c1 (single isomer, unassigned) [Example 146a, (1-(cyclopropylmethyl)-4-methoxypiperidin-3-yl)(6-methoxynaphthalen-2-yl)methanone] | 382
26 | COc1ccc2cc(C(=O)C3CN(CC4CC4)CCC3OC)ccc2c1 (single isomer, unassigned) [Example 146b, (1-(cyclopropylmethyl)-4-methoxypiperidin-3-yl)(6-methoxynaphthalen-2-yl)methanone] | 129
27 | CCC1CCN(C2CC2)CC1C(=O)c1ccc2cc(OC)ccc2c1 (single isomer, unassigned) [Example 147a, (1-cyclopropyl-4-ethylpiperidin-3-yl)(6-methoxynaphthalen-2-yl)methanone] | 2000
